pIC50: −log10 of the molar value.
How the values were obtained:
MOLM13 = test: 7-day proliferation assay (WST-8), cell growth inhibition; format: cell-based; conditions: Homo sapiens, MOLM-13, 168 h, MOLM13 cells, 7 days
How it was run: (§1)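 Cells seeded at 2,000-3,000/well were exposed to serially diluted compound for 7 days at 37° C., 5% CO2. Viability was read by WST-8 absorbance at 450 nm after 1-2 h color development; readings normalized to DMSO-treated cells, IC50 by four-parameter nonlinear regression.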

MV4-11 = test: as above; format: cell-based; conditions: Homo sapiens, MV4-11, 168 h, MV4-11 cells, 7 days
How it was run: as §1

menin protein = molecular target: T1, menin protein (Homo sapiens, UniProt O00255); test: Fluorescence polarization (FP) competitive binding assay, menin binding affinity; conditions: FP competition with FAM-MM2 probe 2 nM, menin 4 nM, 30 minutes room temperature
T1 sequence (O00255 1-610): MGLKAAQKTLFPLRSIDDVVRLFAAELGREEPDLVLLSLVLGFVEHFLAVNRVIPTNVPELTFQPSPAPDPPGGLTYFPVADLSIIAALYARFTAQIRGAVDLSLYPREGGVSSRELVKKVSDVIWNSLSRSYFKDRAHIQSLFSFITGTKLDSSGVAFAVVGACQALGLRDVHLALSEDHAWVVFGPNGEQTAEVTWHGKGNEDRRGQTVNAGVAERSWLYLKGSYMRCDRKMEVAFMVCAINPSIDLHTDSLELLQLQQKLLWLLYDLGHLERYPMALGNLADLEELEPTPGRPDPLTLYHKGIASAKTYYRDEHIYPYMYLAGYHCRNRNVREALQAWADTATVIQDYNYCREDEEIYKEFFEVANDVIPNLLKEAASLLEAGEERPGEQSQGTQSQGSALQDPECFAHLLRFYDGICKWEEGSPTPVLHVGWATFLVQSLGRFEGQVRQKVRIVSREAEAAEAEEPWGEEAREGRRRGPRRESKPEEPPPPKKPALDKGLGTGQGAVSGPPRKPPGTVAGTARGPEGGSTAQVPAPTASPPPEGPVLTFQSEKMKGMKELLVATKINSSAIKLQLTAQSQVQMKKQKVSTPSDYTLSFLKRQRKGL
Protocol: A fluorescence polarization (FP) competitive binding assay was used to determine the binding affinities of representative menin inhibitors. A FAM labeled fluorescent probe was designed and synthesized based on a MLL1 peptide (FAM-MM2). Equilibrium dissociation constant (Kd) value of FAM-MM2 to menin protein was determined from protein saturation experiments by monitoring the total fluorescence polarization of mixtures composed with the fluorescent probe at a fixed concentration and the protein with increasing concentrations up to full saturation. Serial dilutions of the protein were mixed with FAM-MM2 to a final volume of 200 μl in the assay buffer (PBS with 0.02% Bovine γ-Globulin and 4% DMSO. 0.01% Triton X-100 was added right before assays). Final FAM-MM2 concentration was 2 nM. Plates were incubated at room temperature for 30 minutes with gentle shaking to assure equilibrium. FP values in millipolarization units (mP) were measured using the Infinite M-1000 plate reader (Tecan U.S., Research Triangle Park, N.C.) in Microfluor 1 96-well, black, v-bottom plates (Thermo Scientific, Waltham, Mass.) at an excitation wavelength of 485 nm and an emission wavelength of 530 nm.
The IC50 of representative Compounds of the Disclosure, see Table 3, were determined in a competitive binding experiment. Mixtures of 5 μl of the tested compounds in DMSO and 195 μl of preincubated protein/probe complex solution in the assay buffer were added into assay plates which were incubated at room temperature for 30 minutes with gentle shaking. Final concentration of the menin protein was 4 nM, and final probe concentration is 2 nM. Negative controls containing protein/probe complex only (equivalent to 0% inhibition), and positive controls containing only free probes (equivalent to 100% inhibition), were included in each assay plate. FP values were measured as described above. IC50 values were determined by nonlinear regression fitting of the competition curves.

Row | SMILES | IC50 (MOLM13) [nM] | IC50 (MV4-11) [nM] | pIC50 (menin protein)
1 | C=CC(=O)N1CCOC[C@@H](S(=O)(=O)c2ccc(N3CC(C)(CN4CCC([C@@](Cn5ccnn5)(c5cccc(F)c5)[C@H]5CCC[C@@H]5NC(=O)OC)CC4)C3)c(F)c2)C1 [compound 185] | < 1000 | < 100 | –
2 | C=CC(=O)Nc1cccc(S(=O)(=O)c2ccc(N3CC(CN4CCC([C@@](CN5CCC5)(c5cccc(F)c5)[C@H]5CCC[C@@H]5NC(=O)OC)CC4)(OC)C3)c(F)c2)c1 [compound 187] | < 10 | < 10 | –
3 | C=CC(=O)N1CCOC[C@H](S(=O)(=O)c2ccc(N3CC(C)(CN4CCC([C@@](CN5CCC5)(c5cccc(F)c5)[C@H]5CCC[C@@H]5NC(=O)OC)CC4)C3)cc2)C1 [compound 213] | < 100 | < 50 | –
4 | COC(=O)N[C@H]1CCC[C@@H]1[C@](CN1CCC1)(c1cccc(F)c1)C1CCN(CC2(F)CN(c3ccc(S(=O)(=O)C4CCCN(C(=O)/C=C/CO)C4)cc3F)C2)CC1 (stereo partly shown) [compound 122] | < 100 | < 50 | –
5 | C=CC(=O)N1CCC[C@@H](S(=O)(=O)c2ccc(N3CC(CN4CCC([C@@](CN5CCC5)(c5cccc(F)c5)[C@H]5CCC[C@@H]5NC(=O)OC)CC4)C3)cc2CN2CC(F)C2)C1 [compound 208] | < 50 | < 50 | –
6 | C=CC(=O)N1CCC[C@@H](S(=O)(=O)c2ccc(N3CC(CN4CCC([C@@](CN5CCC5)(c5cccc(F)c5)[C@H]5CCC[C@@H]5NC(=O)OC)CC4)(OC)C3)cc2)C1 [compound 212] | < 100 | < 50 | –
7 | COC(=O)N[C@H]1CCC[C@@H]1[C@](CNC(C)=O)(c1cccc(F)c1)C1CCN(CC2CN(c3ccc(S(=O)(=O)C4CN(C(=O)/C=C/CN(C)C)C4)cc3)C2)CC1 [compound 128] | < 100 | < 10 | –
8 | COC(=O)N[C@H]1CCC[C@@H]1[C@](CN1CCC1)(c1cccc(F)c1)C1CCN(CC2(F)CN(c3ccc(S(=O)(=O)C4CN(C(=O)/C=C/CN5CCCCC5)C4)cc3F)C2)CC1 [compound 94] | < 50 | < 10 | –
9 | C=CC(=O)N1CCOC[C@@H](S(=O)(=O)c2ccc(N3CC(CN4CCC([C@@](Cn5ccnn5)(c5cccc(F)c5)[C@H]5CCC[C@@H]5NC(=O)OC)CC4)C3)c(F)c2)C1 [compound 182] | < 100 | < 10 | –
10 | C=CC(=O)Nc1cc(OC)cc(S(=O)(=O)c2ccc(N3CC(F)(CN4CCC([C@@](CN5CCC5)(c5cccc(F)c5)[C@H]5CCC[C@@H]5NC(=O)OC)CC4)C3)c(F)c2)c1 [compound 91] | < 50 | < 50 | –
11 | C=CC(=O)N1CCOC[C@@H](S(=O)(=O)c2ccc(N3CC(C)(CN4CCC([C@@](CN5CCC5)(c5cccc(F)c5)[C@H]5CCC[C@@H]5NC(=O)OC)CC4)C3)cc2)C1 [compound 214] | < 500 | < 500 | –
12 | C=CC(=O)Nc1cccc(S(=O)(=O)c2ccc(N3CC(F)(CN4CCC([C@@](CN5CCC5)(c5cccc(F)c5)[C@H]5CCC[C@@H]5NC(=O)OC)CC4)C3)cc2)c1 [compound 76] | < 50 | < 10 | –
13 | C=CC(=O)N1CC(S(=O)(=O)c2ccc(N3CC(F)(CN4CCC([C@@](CNC(C)=O)(c5cccc(F)c5)[C@H]5CCC[C@@H]5NC(=O)OC)CC4)C3)cc2CN2CC(F)C2)C1 [compound 177] | < 500 | < 100 | –
14 | C=CC(=O)Nc1cccc(S(=O)(=O)c2ccc(N3CC(CN4CCC([C@@](CN5CCC5)(c5cccc(F)c5)[C@H]5CCC[C@@H]5NC(=O)OC)CC4)(OC)C3)cc2)c1 [compound 188] | < 10 | < 10 | –
15 | C=CC(=O)N1CCOC[C@@H](S(=O)(=O)c2ccc(N3CC(F)(CN4CCC([C@@](Cn5ccnn5)(c5cccc(F)c5)[C@H]5CCC[C@@H]5NC(=O)OC)CC4)C3)c(F)c2)C1 [compound 184] | < 500 | < 500 | –
16 | C=CC(=O)Nc1cc(F)cc(S(=O)(=O)c2ccc(N3CC(F)(CN4CCC([C@@](CN5CCC5)(c5cccc(F)c5)[C@H]5CCC[C@@H]5NC(=O)OC)CC4)C3)cc2)c1 [compound 88] | < 50 | < 50 | –
17 | C=C(CN(CC)CC)C(=O)N1CC(S(=O)(=O)c2ccc(N3CC(CN4CCC([C@@](CN5CCC5)(c5cccc(F)c5)[C@H]5CCC[C@@H]5NC(=O)OC)CC4)C3)cc2)C1 [Cpd. No. 21, methyl ((1S,2R)-2-((S)-2-(azetidin-1-yl)-1-(1-((1-(4-((1-(2-((diethylamino)methyl)acryloyl)azetidin-3-yl)sulfonyl)phenyl)azetidin-3-yl)methyl)piperidin-4-yl)-1-(3-fluorophenyl)ethyl)cyclopentyl)carbamate] | – | < 10 | 8.70
18 | C=CC(=O)Nc1cc(S(=O)(=O)c2ccc(N3CC(F)(CN4CCC([C@@](CN5CCC5)(c5cccc(F)c5)[C@H]5CCC[C@@H]5NC(=O)OC)CC4)C3)c(F)c2)ccc1OC [compound 92] | < 50 | < 10 | –
19 | C=CC(=O)N1CCCC[C@@H](S(=O)(=O)c2ccc(N3CC(CN4CCC([C@@](CNC(=O)OC)(c5cccc(F)c5)[C@H]5CCC[C@@H]5NC(=O)OC)CC4)C3)c(F)c2)C1 [compound 186] | < 50 | < 50 | –
20 | C=CC(=O)Nc1cc(F)cc(S(=O)(=O)c2ccc(N3CC(CN4CCC([C@@](CN5CCC5)(c5cccc(F)c5)[C@H]5CCC[C@@H]5NC(=O)OC)CC4)C3)cc2)c1 [compound 72] | < 50 | < 10 | –
21 | CC#CC(=O)N1CC[C@@H](S(=O)(=O)c2ccc(N3CC(O)(CN4CCC([C@@](CNC(C)=O)(c5cccc(F)c5)[C@H]5CCC[C@@H]5NC(=O)OC)CC4)C3)c(F)c2)C1 [compound 206] | – | < 50 | 8.70
22 | C=CC(=O)N1CCC[C@@H](S(=O)(=O)c2ccc(N3CC(O)(CN4CCC([C@@](CNC(C)=O)(c5cccc(F)c5)[C@H]5CCC[C@@H]5NC(=O)OC)CC4)C3)cc2)C1 [compound 205] | < 500 | < 500 | –
23 | COC(=O)N[C@H]1CCC[C@@H]1[C@](CN1CCC1)(c1cccc(F)c1)C1CCN(CC2CN(c3ccc(S(=O)(=O)C4CN(C(=O)/C=C/CN5CCC5)C4)cc3)C2)CC1 [Cpd. No. 173, Methyl ((1S,2R)-2-((S)-2-(azetidin-1-yl)-1-(1-((1-(4-((1-((E)-4-(azetidin-1-yl)but-2-enoyl)azetidin-3-yl)sulfonyl)phenyl)azetidin-3-yl)methyl)piperidin-4-yl)-1-(3-fluorophenyl)ethyl)cyclopentyl)carbamate] | – | < 10 | 8.70
24 | COC(=O)N[C@H]1CCC[C@@H]1[C@](CN1CCC1)(c1cccc(F)c1)C1CCN(CC2CN(c3ccc(S(=O)(=O)C4CN(C(=O)/C=C/CN5CCC(F)CC5)C4)cc3)C2)CC1 [compound 100] | – | < 10 | 8.40
25 | C=C(CN1CCC1)C(=O)N1CC(S(=O)(=O)c2ccc(N3CC(CN4CCC([C@@](CN5CCC5)(c5cccc(F)c5)[C@H]5CCC[C@@H]5NC(=O)OC)CC4)C3)cc2)C1 [Cpd. No. 22, methyl ((1S,2R)-2-((S)-2-(azetidin-1-yl)-1-(1-((1-(4-((1-(2-(azetidin-1-ylmethyl)acryloyl)azetidin-3-yl)sulfonyl)phenyl)azetidin-3-yl)methyl)piperidin-4-yl)-1-(3-fluorophenyl)ethyl)cyclopentyl)carbamate] | – | < 10 | 8.70
26 | COC(=O)N[C@H]1CCC[C@@H]1[C@](CN1CCC1)(c1cccc(F)c1)C1CCN(CC2CN(c3ccc(S(=O)(=O)C4CN(C(=O)/C=C/CN5CCOCC5)C4)cc3)C2)CC1 [Cpd. No. 25, methyl ((1S,2R)-2-((S)-2-(azetidin-1-yl)-1-(3-fluorophenyl)-1-(1-((1-(4-((1-((E)-4-morpholinobut-2-enoyl)azetidin-3-yl)sulfonyl)phenyl)azetidin-3-yl)methyl)piperidin-4-yl)ethyl)cyclopentyl)carbamate] | – | < 10 | 8.15

From patent US20210115018A1, “PIPERIDINE COMPOUNDS AS COVALENT MENIN INHIBITORS” (THE REGENTS OF THE UNIVERSITY OF MICHIGAN, priority 2018, published 2021)
